Legend:
[1] = test system: hepatoma cells L-BEL-7402; assay: Proliferation of human cancer cell panel; format: cell-based; settings: read-out: inhibitory activity on proliferation
From the text: (§1) I-30 and I-33 were selected to test their activity on the proliferation of human cancer cells originated from different tissue types.

[2] = test system: B-BT474; assay: Proliferation of human cancer cell panel; format: cell-based; settings: read-out: inhibitory activity on proliferation
From the text: as §1

[3] = test system: gastric cancer cells G-MKN-45; assay: Proliferation of human cancer cell panel; format: cell-based; settings: read-out: inhibitory activity on proliferation
From the text: as §1

[4] = test system: O-SKOV-3; assay: Proliferation of human cancer cell panel; format: cell-based; settings: read-out: inhibitory activity on proliferation
From the text: as §1

[5] = test system: LG-NCI-H460; assay: Proliferation of human cancer cell panel; format: cell-based; settings: read-out: inhibitory activity on proliferation
From the text: as §1

[6] = test system: colorectal cancer cells C-LOVO; assay: Proliferation of human cancer cell panel; format: cell-based; settings: read-out: inhibitory activity on proliferation
From the text: as §1

[7] = test system: rhabdomyosarcoma cells S-RH30; assay: Proliferation of human cancer cell panel; format: cell-based; settings: read-out: inhibitory activity on proliferation
From the text: as §1

[8] = test system: B-MCF-7; assay: Proliferation of human cancer cell panel; format: cell-based; settings: read-out: inhibitory activity on proliferation
From the text: as §1

[9] = test system: P-PC-3; assay: Proliferation of human cancer cell panel; format: cell-based; settings: read-out: inhibitory activity on proliferation
From the text: as §1

[10] = test system: LG-NCI-H23; assay: Proliferation of human cancer cell panel; format: cell-based; settings: read-out: inhibitory activity on proliferation
From the text: as §1

[11] = test system: endometrial cancer cells E-RL95-2; assay: Proliferation of human cancer cell panel; format: cell-based; settings: read-out: inhibitory activity on proliferation
From the text: as §1

[12] = test system: colon cancer cells C-HCT-116; assay: Proliferation of human cancer cell panel; format: cell-based; settings: read-out: inhibitory activity on proliferation
From the text: as §1

[13] = test system: human neuroglioma U87-MG xenograft; assay: Growth of U87-MG xenograft subcutaneously transplanted in nude mouse; format: in vivo; settings: 50 mg/kg p.o. once a day
Procedure: Well-developed tumors in nude mice were cut into 1.5 mm3 fragments and transplanted s.c. into the right flank of nude mice under sterile conditions. The diameters of subcutaneously transplanted tumours in nude mice were measured with a vernier calipe. […] Control groups were given the same amount of blank solvent, and treatment groups received tested compounds (p.o.). Compounds were administrated once a day for three weeks. Throughout the experiment, the sizes of the tumours were measured twice per week and meanwile the body weights of mice were weighed. The tumour volume (TV) was calculated as follows: TV=½×a×b2, wherein a and b represent the length and width, respectively. The individual relative tumour volume (RTV) was calculated as follows: RTV=Vt/V0, where V0 is the volume at the beginning of the treatment and Vt is the volume measured every time. Evaluation index of antitumor activity was relative tumor proliferation rate T/C (%), the calculation formula of which was as follows: T/C (%)=(TRTV/CRTV)×100%, TRTV:RTV of treatment group; CRTV:RTV of negative control group.

[14] = target: PI3Kα (Homo sapiens (Human), UniProt P42336); assay: Inhibition on PI3K kinase activity (Kinase-Glo Plus luminescent assay); format: biochemical; settings: 2 μM ATP, 1 hour at room temperature
Procedure: The activity of purified kinase was detected with Kinase-Glo® Plus kinase luminescent assay by measuring the amount of the remaining […] in the solution after the kinase reaction was completed. […] After reaction was performed for 1 hour at room temperature, 10 μL of Kinase Glo-Plus mixture was added and incubated for 1 hour to quench the reaction.

[15] = test system: human rhabdomyosarcoma Rh30 cells; assay: Proliferation of Rh30 cells (sulforhodamine B); format: cell-based; settings: Homo sapiens, Rh30, 72 h; read-out: IC50 against proliferation of Rh30 cells
Procedure: Rh30 cells were seeded in a 96-well plate at 3000 cells/well. After the cells adhered, tested compounds at concentration of 10, 3, 1, 0.3, or 0.1 μM were added, and incubated for 72 h. The culture media were discarded and cells were fixed with trichloroacetic acid. After washed with distilled water for five times and dried, sulfonylrhodamine B was added. After washed with 1% glacial acetic acid for five times and dried, trihydroxymethylaminomethane buffer was added. OD value was measured by using a microplate reader at a wavelength of 560 nm.

Sequence of PI3Kα (P42336 whole entry): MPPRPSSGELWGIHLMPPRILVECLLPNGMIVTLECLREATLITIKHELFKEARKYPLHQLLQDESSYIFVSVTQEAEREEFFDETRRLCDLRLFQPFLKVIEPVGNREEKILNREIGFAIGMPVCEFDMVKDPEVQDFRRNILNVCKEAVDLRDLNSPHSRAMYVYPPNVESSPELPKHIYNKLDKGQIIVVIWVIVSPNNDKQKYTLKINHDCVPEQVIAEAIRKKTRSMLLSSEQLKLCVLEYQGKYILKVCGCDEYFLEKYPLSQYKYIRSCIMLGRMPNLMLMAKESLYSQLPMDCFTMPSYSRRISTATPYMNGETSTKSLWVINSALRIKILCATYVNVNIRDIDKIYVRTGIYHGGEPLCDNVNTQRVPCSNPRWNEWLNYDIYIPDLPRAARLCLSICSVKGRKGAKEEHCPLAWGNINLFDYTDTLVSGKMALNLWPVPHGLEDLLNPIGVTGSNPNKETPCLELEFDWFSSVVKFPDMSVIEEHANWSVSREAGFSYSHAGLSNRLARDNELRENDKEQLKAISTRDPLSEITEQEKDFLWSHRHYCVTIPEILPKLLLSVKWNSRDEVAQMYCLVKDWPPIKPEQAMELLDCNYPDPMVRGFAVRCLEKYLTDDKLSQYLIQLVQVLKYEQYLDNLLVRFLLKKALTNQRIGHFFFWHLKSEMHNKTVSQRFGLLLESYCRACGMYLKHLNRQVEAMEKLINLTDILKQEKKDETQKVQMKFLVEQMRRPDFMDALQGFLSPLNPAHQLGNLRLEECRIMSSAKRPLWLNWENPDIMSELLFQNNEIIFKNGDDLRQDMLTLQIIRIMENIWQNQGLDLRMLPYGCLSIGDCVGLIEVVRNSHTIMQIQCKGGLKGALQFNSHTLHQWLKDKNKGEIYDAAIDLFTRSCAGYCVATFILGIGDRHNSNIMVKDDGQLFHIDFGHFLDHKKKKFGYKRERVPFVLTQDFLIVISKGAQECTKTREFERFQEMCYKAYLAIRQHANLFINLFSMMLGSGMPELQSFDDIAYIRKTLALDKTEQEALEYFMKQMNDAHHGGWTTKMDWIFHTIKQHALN
Sequence of PI3Kα (P27986 whole entry partner): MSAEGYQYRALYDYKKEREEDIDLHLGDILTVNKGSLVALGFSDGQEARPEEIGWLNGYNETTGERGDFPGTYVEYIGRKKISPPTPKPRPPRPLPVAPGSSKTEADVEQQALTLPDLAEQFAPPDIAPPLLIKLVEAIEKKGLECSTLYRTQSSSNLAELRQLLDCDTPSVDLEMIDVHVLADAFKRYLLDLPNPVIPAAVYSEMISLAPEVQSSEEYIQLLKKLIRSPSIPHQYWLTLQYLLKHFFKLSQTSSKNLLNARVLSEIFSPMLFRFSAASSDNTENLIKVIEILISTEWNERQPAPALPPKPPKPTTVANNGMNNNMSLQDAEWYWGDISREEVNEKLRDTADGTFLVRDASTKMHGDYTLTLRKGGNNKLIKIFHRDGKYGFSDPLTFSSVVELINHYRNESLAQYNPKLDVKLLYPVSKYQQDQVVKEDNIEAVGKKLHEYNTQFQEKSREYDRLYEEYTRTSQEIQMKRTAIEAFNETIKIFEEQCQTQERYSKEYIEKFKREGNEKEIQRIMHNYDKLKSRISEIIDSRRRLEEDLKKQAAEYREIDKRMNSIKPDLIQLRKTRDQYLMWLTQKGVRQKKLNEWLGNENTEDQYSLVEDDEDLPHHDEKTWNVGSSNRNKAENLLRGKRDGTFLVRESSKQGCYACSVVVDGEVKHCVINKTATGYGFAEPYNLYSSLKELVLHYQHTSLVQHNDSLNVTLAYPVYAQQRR

SMILES | IC50 [1] [nM] | IC50 [2] [nM] | IC50 [3] [nM] | IC50 [4] [nM] | IC50 [5] [nM] | IC50 [6] [nM] | IC50 [7] [nM] | IC50 [8] [nM] | IC50 [9] [nM] | IC50 [10] [nM] | IC50 [11] [nM] | IC50 [12] [nM] | further results
CS(=O)(=O)N1CCN(Cc2cc3nc(-c4cccc5[nH]ncc45)nc(N4CCOCC4)c3s2)CC1 [GDC0941, reference compound] | 3200 | 256 | 1670 | 316 | 1660 | 517 | 478 | 519 | 636 | 1200 | 2200 | 8100 | Relative tumor proliferation rate T/C ([13]; d0): 100.00%; Relative tumor proliferation rate T/C ([13]; d3): 75.12%; Relative tumor proliferation rate T/C ([13]; d7): 79.34%; Relative tumor proliferation rate T/C ([13]; d10): 74.75%; Relative tumor proliferation rate T/C ([13]; d14): 56.86%; Relative tumor proliferation rate T/C ([13]; d17): 53.57%; Relative tumor proliferation rate T/C ([13]; d21): 51.40%
CCNC(=O)Nc1cc(C(F)(F)F)c(-c2nc(N3CCOCC3)c3cc(CN4CCN(S(C)(=O)=O)CC4)cn3n2)cn1 [Compound I-30, 1-ethyl-3-(5-(6-((4-(methylsulfonyl)piperazin-1-yl)methyl)-4-morpholinopyrrolo[2,1-f][1,2,4]triazin-2-yl)-4-(trifluoromethyl)pyridin-2-yl)urea] | 3200 | 32 | 1550 | 46 | 660 | 493 | 256 | 2510 | 601 | 890 | 2000 | 9700 | IC50 [14]: 8.19 nM; IC50 [15]: 820 nM
